Measured values as given in publication PMC11219871, “Epigenetic-based differentiation therapy for Acute Myeloid Leukemia” (Nature Communications, 2024).
Where “and” joins values, the source holds several entries; their conditions need not be identical. Equal entries are not always repeated.

Legend:
HDAC7 = molecular target: T1, HDAC7 (Homo sapiens, UniProt Q8WUI4); test: HDAC assay (Eurofins); type: biochemical
T1 construct: purchased Eurofins (contracted assay service)
T1 sequence (Q8WUI4 1-952): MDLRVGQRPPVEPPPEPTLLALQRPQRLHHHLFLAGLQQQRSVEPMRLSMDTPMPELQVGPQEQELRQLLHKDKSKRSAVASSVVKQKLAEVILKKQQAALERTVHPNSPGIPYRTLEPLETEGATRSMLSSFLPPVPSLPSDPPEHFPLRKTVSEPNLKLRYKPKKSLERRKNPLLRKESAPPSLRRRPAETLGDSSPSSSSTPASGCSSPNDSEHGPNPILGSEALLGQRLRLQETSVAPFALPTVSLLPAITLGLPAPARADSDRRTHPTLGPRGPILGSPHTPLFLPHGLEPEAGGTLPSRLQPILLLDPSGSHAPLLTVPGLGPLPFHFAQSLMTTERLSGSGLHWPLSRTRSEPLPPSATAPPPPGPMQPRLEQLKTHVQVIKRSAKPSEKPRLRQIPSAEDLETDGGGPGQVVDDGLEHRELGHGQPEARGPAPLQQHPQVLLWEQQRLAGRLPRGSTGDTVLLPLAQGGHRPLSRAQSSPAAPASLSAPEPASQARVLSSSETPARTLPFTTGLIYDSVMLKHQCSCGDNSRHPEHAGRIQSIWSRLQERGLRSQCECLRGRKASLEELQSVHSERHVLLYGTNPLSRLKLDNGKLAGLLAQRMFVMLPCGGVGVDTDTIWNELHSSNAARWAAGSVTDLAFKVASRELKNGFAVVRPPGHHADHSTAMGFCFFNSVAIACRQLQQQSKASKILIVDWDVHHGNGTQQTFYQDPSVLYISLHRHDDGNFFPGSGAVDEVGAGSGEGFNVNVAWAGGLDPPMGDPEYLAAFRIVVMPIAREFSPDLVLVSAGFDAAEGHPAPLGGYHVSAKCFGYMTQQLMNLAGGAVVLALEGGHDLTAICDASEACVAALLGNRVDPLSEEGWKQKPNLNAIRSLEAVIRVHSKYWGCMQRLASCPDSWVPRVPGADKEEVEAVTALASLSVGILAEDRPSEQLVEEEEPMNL

ML-2 = test: q-RT-PCR of MYC, CDKN2A, CDKN1A, GATA2, TAL1, CEBPA, SPI1; type: cell-based, human
Protocol: (§1) RNA was extracted with TRIzol Reagent (Invitrogen) according to the manufacturer’s instructions. First, cDNA was synthesized from 1 µg of total RNA using the PrimeScript RT reagent Kit (Perfect Real Time) (Cat No RR037A, TaKaRa) following the manufacturer’s instructions. The quality of cDNA was checked by a multiplex PCR that amplifies PBGD, ABL, BCR and β2-MG genes. […] The following program conditions were used for the q-PCR: 50 °C for 2 min, 95 °C for 60 s following by 45 cycles at 95 °C for 15 s and 60 °C for 60 s; melting program, one cycle at 95 °C for 15 s, 40 °C for 60 s, and 95 °C for 15 s. The relative expression of each gene was quantified by the […] method using the gene GUS as an endogenous control. The sequence of primers used can be found in Supplementary Table 10.

MOLM-13 = test: as above; type: cell-based, human
Protocol: as §1

CACO-2 permeability = type: in vitro ADME; conditions: human
Protocol: This study was conducted at Wuxi (http://www.wuxi.com/). Caco-2 cells (ATCC) were seeded onto polyethylene membranes in 96-well BD insert plates at 1 × 10^5 cells/cm^2, and the medium was changed every 4 days until the 21st to 28th day for confluent cell monolayer formation. Test compounds were diluted with transport buffer (HBSS with 10 mM HEPES at pH 7.4 ± 0.05) to a concentration of 2 µM (final DMSO concentration adjusted to <1%) and tested bi-directionally to investigate P-glycoprotein-mediated efflux in duplicate. Controls: digoxin (10 μM, bi-directionally), nanodolol and metoprolol (2 μM, apical, A, to basolateral, B). The permeation was assessed over a 120-minute incubation at 37 °C ± 1 °C and 5% CO2 at saturated humidity without shaking. Samples were mixed with acetonitrile containing internal standard and centrifuged at 1520 g for 10 min. Then, 100-μL aliquots of supernatant solutions were diluted with 100 μL of pure water. Concentrations of test and control compounds in starting solution, donor solution, and receiver solution were quantified by LC-MS/MS using a peak area ratio of analyte to internal standard. Permeation of lucifer yellow through the monolayer was measured to evaluate the cellular integrity. The results are the average of two biological replicates.

[1] = test system: HL-60 cells in BALB/cA Rag2-/-γc-/- mice; test: Subcutaneous implant of in vitro pretreated cells, tumor volume; type: in vivo, mouse; parameters: key to Tumor volume: mm^3; V = D×d²/2 (D longest, d shortest diameter); conditions: for Tumor volume: HL-60 cells pretreated in vitro for 96 hours with 270 nM of CM-444 or 300 nM of CM-1758, injected subcutaneously, individual mice
Protocol: The human AML HL-60 and ML-2 cell lines were first pretreated in vitro daily with 270 and 260 nM of CM-444 or 300 and 210 nM of CM-1758, respectively, for 4 days. Prior to injection in mice, the cell differentiation induction by CM-444 and CM-1758 compounds was verified by measuring CD11b by flow cytometry, as described earlier. Then, 5 × 10^6 cells of cells, pretreated with CM-444, […], or vehicle (80% saline solution, 10% DMSO and 10% Tween 20) and diluted in 100 µL of saline solution, were implanted subcutaneously into the flank of female BALB/cA Rag2^−/−γc^−/− mice between 6 and 8 weeks of age (n = 8). Tumor size was analyzed every 2–3 days using the following method: […], where D and d corresponded to the longest and shortest diameter, respectively. The maximal tumor size/burden permitted by the Animal Care and Ethics Committee of the University of Navarra is 2000 mm^3. In some cases, this limit was reached on the last day of measurement and the mice were immediately euthanized.

[2] = ML-2, replicates 1-3 (Figure 2E)
[3] = ML-2, replicates 1-3 (Figure 2G)
[4] = ML-2 treated daily for 48 h, replicates (Fig 6G)
[5] = MOLM-13, daily treatment for 48 h, replicates 1-3

COc1cc2nc(-c3ccc(C)o3)cc(NCC3CCN(c4ncc(C(=O)NO)cn4)CC3)c2cc1OC [CM-444, 2-[4-[[[6,7-dimethoxy-2-(5-methyl-2-furyl)-4-quinolyl]amino]methyl]-1-piperidyl]pyrimidine-5-carbohydroxamic acid]
IC50 (HDAC7): 120 nM
inhibition at 10 µM (HDAC7; 10 µM): 89%
q-PCR of CDKN1A (p21), log10 (2-ΔΔCt) (ML-2; [2]): 1.227 and 1.353 and 1.599
q-PCR of CDKN2A (p16), log10 (2-ΔΔCt) (ML-2; [2]): 0.6515 and 0.5026 and 0.5454
q-PCR of MYC, log10 (2-ΔΔCt) (ML-2; [2]): -1.502 and -1.26 and -1.4
q-PCR of CEBPA, log10 (2-ΔΔCt) (ML-2; [3]): 0.9236 and 1.002 and 0.879
q-PCR of GATA2, log10 (2-ΔΔCt) (ML-2; [3]): 2.413 and 2.636 and 2.689
q-PCR of SPI1 (PU.1), log10 (2-ΔΔCt) (ML-2; [3]): 0.5237 and 0.6236 and 0.7619
q-PCR of TAL1 (SCL), log10 (2-ΔΔCt) (ML-2; [3]): 0.9258 and 1.226 and 0.9453
q-PCR of CEBPA (ML-2; [4]): 1.15 log10 (2-ΔΔCt) and 1.105 log10 (2-ΔΔCt) and 1.112 log10 (2-ΔΔCt)
q-PCR of GATA2 (ML-2; [4]): 1.841 log10 (2-ΔΔCt) and 1.852 log10 (2-ΔΔCt) and 1.8708 log10 (2-ΔΔCt)
q-PCR of MYC (ML-2; [4]): -0.8138 log10 (2-ΔΔCt) and -0.7958 log10 (2-ΔΔCt) and -0.772 log10 (2-ΔΔCt)
q-PCR of SPI1 (ML-2; [4]): 0.6179 log10 (2-ΔΔCt) and 0.715 log10 (2-ΔΔCt) and 0.7068 log10 (2-ΔΔCt)
q-PCR of TAL1 (ML-2; [4]): 0.9832 log10 (2-ΔΔCt) and 1.433 log10 (2-ΔΔCt) and 0.7663 log10 (2-ΔΔCt)
q-PCR of CEBPA, log10 (2-ΔΔCt) (MOLM-13; [5]): 2.5418 and 2.486 and 2.37
q-PCR of GATA2, log10 (2-ΔΔCt) (MOLM-13; [5]): 1.451 and 1.32 and 1.2001
q-PCR of MYC, log10 (2-ΔΔCt) (MOLM-13; [5]): -0.5166 and -0.6125 and -0.4922
q-PCR of SPI1, log10 (2-ΔΔCt) (MOLM-13; [5]): 0.3255 and 0.2581 and 0.1964
q-PCR of TAL1, log10 (2-ΔΔCt) (MOLM-13; [5]): 1.582 and 1.681 and 1.836
CDKN1A log10 (2-ΔΔCt) (MOLM-13; MOLM-13, q-PCR): 0.9026 and 0.7158 and 0.9504
CDKN2A log10 (2-ΔΔCt) (MOLM-13; MOLM-13, q-PCR): 0.7237 and 0.7926 and 0.8396
CEBPA log10 (2-ΔΔCt) (MOLM-13; MOLM-13, q-PCR): 1.789 and 1.635 and 1.622
GATA2 log10 (2-ΔΔCt) (MOLM-13; MOLM-13, q-PCR): 0.9826 and 1.026 and 1.05
MYC log10 (2-ΔΔCt) (MOLM-13; MOLM-13, q-PCR): -0.5821 and -0.5713 and -0.4455
SPI1 log10 (2-ΔΔCt) (MOLM-13; MOLM-13, q-PCR): 0.02369 and 0.04258 and 0.1281
TAL1 log10 (2-ΔΔCt) (MOLM-13; MOLM-13, q-PCR): 1.526 and 1.626 and 1.825
efflux ratio at 120 min, 2 µM (CACO-2 permeability; Caco-2, pH 7.4): > 1050
Papp A→B at 120 min, 2 µM (CACO-2 permeability; Caco-2, pH 7.4, A to B): < 0.01 ×10⁻⁶ cm/s
tumor growth ([1]; HL-60 cells pretreated in vitro 4 days, s.c.): tumor growth was significantly slower
Tumor volume ([1]; day 0, in mm³): 0
Tumor volume ([1]; day 6): 0 (3×) and 15.188 and 103.406 and 17.053
Tumor volume ([1]; day 8, in mm³): 74.6826 and 76.624 and 60.9783 and 227.696 and 55.1928 and 10.6605 and 0
Tumor volume ([1]; day 10, in mm³): 208.487 and 290.654 and 187.094 and 596.573 and 195.686 and 84.5628 and 14.1488
Tumor volume ([1]; day 13, in mm³): 1082.75 and 1016.65 and 1040.97 and 728.909 and 903.701 and 1085.29
